The values that follow come from ChEMBL document CHEMBL1130701, “Dual antagonists of platelet activating factor and histamine. 3. Synthesis, biological activity and conformational implications of substituted N-acyl-bis-arylcycloheptapiperazines” (Bioorg Med Chem Lett, 1998).

What is called IC50 is the point on the concentration scale where inhibition reaches its midpoint. High values mean lower potency, low ones higher potency. For orientation: Ki means a measure of affinity in units of concentration, obtained from inhibition or displacement. A high value points to a looser hold on the target.

Assay [1] is filed under the species Homo sapiens. Description: tissue or blood. In kind it is functional, organism-based. As to conditions: Plasma.
For assay [2], the target named is Histamine H1 receptor (Rattus norvegicus, UniProt P31390). Description: Binding affinity against Histamine H1 receptor using receptor binding assay in rat brain membranes. Type of assay: cell membranes.
Chain of Histamine H1 receptor (P31390 whole entry): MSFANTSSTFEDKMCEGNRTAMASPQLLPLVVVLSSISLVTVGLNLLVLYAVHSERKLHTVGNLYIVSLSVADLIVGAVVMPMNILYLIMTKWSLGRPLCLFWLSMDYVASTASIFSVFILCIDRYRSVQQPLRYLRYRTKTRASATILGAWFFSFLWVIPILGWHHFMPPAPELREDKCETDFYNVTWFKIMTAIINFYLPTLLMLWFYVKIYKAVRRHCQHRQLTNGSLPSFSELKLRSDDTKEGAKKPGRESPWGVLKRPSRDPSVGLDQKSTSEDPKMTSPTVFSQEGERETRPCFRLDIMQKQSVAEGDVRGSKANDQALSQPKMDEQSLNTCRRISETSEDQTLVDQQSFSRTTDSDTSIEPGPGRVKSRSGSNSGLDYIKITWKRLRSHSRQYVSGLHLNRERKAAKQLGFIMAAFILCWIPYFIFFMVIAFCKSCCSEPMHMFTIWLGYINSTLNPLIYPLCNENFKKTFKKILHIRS

The compound `CCCC(=O)N1CCN(C2c3ccc(Cl)cc3CCc3cccnc32)CC1` (stereo not given) gave an IC50 in assay [1] of 15 µM. Also, affinity in assay [2] was put at a Ki of 3.6 µM.

Consider `CCC(=O)N1CCC(=C2c3ccc(Cl)cc3CCc3cccnc32)CC1`, for which, in assay [1], half-maximal inhibition (IC50) required 2.4 µM.

In turn, `CC(=O)N1CCN(C2c3ccc(Cl)cc3C=Cc3cccnc32)CC1` (stereo not given) showed an IC50 in assay [1] of 0.66 µM.

As to `Clc1ccc2c(c1)CCc1cccnc1C2N1CCNCC1` (stereo not given), the IC50 in assay [1] is at least 23 µM. In addition, the Ki in assay [2] was 0.0064 µM.

The compound `CC(=O)N1CCCN(C2c3ccc(Cl)cc3CCc3cccnc32)CC1` (stereo not given) registered an IC50 in assay [1] of 13 µM. In assay [2], this compound showed a Ki of 0.97 µM.

Compound `CN1CCN(C2c3ccc(Cl)cc3CCc3cccnc32)CC1` (stereo not given) yielded an IC50 in assay [1] of 28 µM. The compound further displayed a Ki in assay [2] of 0.0065 µM.

In assay [1], `CC(=O)N1CCN([C@@H]2c3ccc(Cl)cc3CCc3cccnc32)CC1` registered an IC50 of 1.3 µM. Besides, the Ki in assay [2] was found to be 3.6 µM.

In assay [1], `CC(=O)N1CCN([C@H]2c3ccc(Cl)cc3CCc3cccnc32)CC1` gave an IC50 of 0.21 µM. In addition, in assay [2], the Ki was above 10 µM.

In assay [1], `O=CN1CCN(C2c3ccc(Cl)cc3CCc3cccnc32)CC1` (stereo not given) returned an IC50 of 12 µM. In assay [2], affinity was put at a Ki of 0.29 µM.

On to `CC(=O)N1[C@H](C)CN(C2c3ccc(Cl)cc3CCc3cccnc32)C[C@@H]1C` (stereo not given in full), for which, in assay [1], the IC50 was above 50 µM. Moreover, the Ki in assay [2] was at least 7.1 µM.

On to `CCOC(=O)N1CCN(C2c3ccc(Cl)cc3CCc3cccnc32)CC1` (stereo not given), for which the IC50 in assay [1] is above 50 µM. The Ki in assay [2] is at least 3.8 µM.

Consider `O=CN1CCC(=C2c3ccc(Cl)cc3CCc3cccnc32)CC1`, for which, in assay [1], the IC50 is 14 µM.

Consider `CCC(=O)N1CCN(C2c3ccc(Cl)cc3CCc3cccnc32)CC1` (stereo not given), for which the IC50 in assay [1] was 1.4 µM. The same compound gave a Ki in assay [2] of 2.5 µM.

`CC(=O)N1CCN(C2c3ccc(Cl)cc3CCc3cccnc32)CC1` (stereo not given) displayed an IC50 in assay [1] of 0.4 µM. The same compound had a Ki in assay [2] of 5.4 µM.

In turn, `O=C1CCC2CN(C3c4ccc(Cl)cc4CCc4cccnc43)CCN12` (stereo not given) had an IC50 in assay [1] of 1.8 µM. Also, the Ki in assay [2] worked out at 3.6 µM.

As for `CC(=O)N1CCN(C2c3ccccc3CCc3ccccc32)CC1`, the IC50 in assay [1] turned out to be 26 µM. In addition, in assay [2], the affinity, expressed as Ki, was 3.7 µM.

`CCCC(=O)N1CCC(=C2c3ccc(Cl)cc3CCc3cccnc32)CC1` gave an IC50 in assay [1] of 33 µM.

Take `CC(=O)N1CCC(=C2c3ccc(Cl)cc3C=Cc3cccnc32)CC1`: in assay [1], 0.42 µM corresponded to half-maximal inhibition (IC50).

In assay [1], `CN1CCN(C2c3ccc(Cl)cc3CCc3cccnc32)CC1=O` (stereo not given) displayed an IC50 above 50 µM. The compound further showed a Ki in assay [2] of 0.049 µM.

`CC(=O)N1CCN(C2c3ccc(Cl)cc3CCc3cccnc32)C[C@@H]1C` (stereo not given in full): in assay [1], 14 µM corresponded to half-maximal inhibition (IC50). Moreover, in assay [2], the Ki was at least 5 µM.

With `CC(=O)N1CCC(=C2c3ccccc3CCc3ccccc32)CC1`, the IC50 in assay [1] turned out to be 41 µM.

On to `O=C1CN(C2c3ccc(Cl)cc3CCc3cccnc32)CCN1` (stereo not given), for which, in assay [1], the IC50 was above 50 µM. Further, the affinity in assay [2], expressed as Ki, was 0.14 µM.

For `CN1CCC(=C2c3ccc(Cl)cc3CCc3cccnc32)CC1`, the IC50 in assay [1] was at least 50 µM.

Turning to `CN(C)CCC(c1ccc(Cl)cc1)c1ccccn1` (stereo not given) [CHLORPHENIRAMINE], in assay [1], the IC50 is above 50 µM.
